The text below walks through data of patent US7230020B2, “11β-hydroxysteroid dehydrogenase inhibitors” (priority 2003, dated 2007).

Read-outs that look alike come from different tables or passages of the source.

One data set deals with T1, Human 11β HSD1 (Homo sapiens, UniProt P28845).
T1 construct: human hepatic microsomes were obtained from XenoTech, product H0610/Lot 0210078; tissue XenoTech H0610/Lot 0210078; host or cells: human liver (hepatic microsomes)
As to the kind of experiment: biochemical. The following applies: for inhibition at 10 µM: read-out: % inhibition of Human 11β HSD1 @10 μM typical sd ± 5% N = 2. The data set is classed as biochemical. Here is the method:
Standard Operating Procedure for the 11β-Hydroxysteroid Dehydrogenase Type 1 cortisol Radioimmunoassay (11β HSD1 Cortisol RIA).
30 mM Tris-HCL, pH 7.2 containing 1 mM EDTA.
50 mM Tris-HCL, pH 8, containing 0.1 M NaCl and 0.1% gelatin.
Prepare 10 mM stock solutions in 100% DMSO at 100 times the required assay concentration. Dilute into assay buffer 1 in 25. Also dilute neat DMSO 1 in 25 into assay buffer for controls.
Dilute this 1 in 50 into assay buffer.
Prepare NADPH as a 1.8 mg/ml solution in assay buffer.
Mix these 3solutions 1:1:1 to make a solution of sufficient volume for 25 μl additions to each sample. Add 0.5 μCi tritiated cortisone per 25 μl and mix the solution well.
Dilute stock 20 mg/ml solution 1 in 100 with assay buffer.
Dilute stock antibody solution to 17 μg/ml in antibody binding buffer.
Make a 20 mg/ml solution in antibody binding buffer and chill on ice.
To a u-bottom polypropylene 96 well plate add: • 25 μl compound dilution or diluted DMSO to controls, NSB's and blanks • 10 μl 1 mM GA in DMSO (enzyme stop solution) to blanks • 25 μl substrate mixture to all samples • 50 μl diluted microsomes to all samples • Incubate plate for 30 min at 37° C. shaking p0 Add 10 μl enzyme stop solution to all wells except the blanks • Add 100 μl antibody solution to all wells except the NSB's, add antibody binding buffer to these wells • Incubate at 37° C. for 1 h • Chill plate on ice for 15 min • Add 50 μl/well charcoal solution and mix with an 8-channel pipette (4-5 aspirations) • Chill the plate on ice • Centrifuge at 4° C., 2000×g for 15 min • Transfer 100 μl supernatant into an Optiplate, also add 25 μl substrate mixture to 2 empty wells to indicate counting efficiency • Add 200 μl Microscint-40 to all wells and count on a Topcount Radioimmunoassay
The 11β HSD1 enzyme assay was carried out following the standard operating procedure described above in u-bottom polypropylene 96 well plates or 1.5 ml Eppendorf tubes as indicated for each experiment. Subsequent to stopping the enzyme reaction, 100 μl antibody prepared in buffer 3 unless otherwise indicated was added to test samples and 100 μl buffer 3 was added to the NSB samples. The samples were incubated for 1 hour at 37° C. and the chilled on ice for 15 mins. Dextran coated charcoal (50 μl/sample) prepared to the indicated concentration in buffer 3 was added and the samples were mixed (vortex for tubes and aspiration 5 times with an 8-channel pipette for 96 well plates) and chilled for a further 10 min. The samples were centrifuged at 2000×g for 15 min at 4° C. to pellet the charcoal. Aliquots of the supernatant (100 μl) were transferred to an Optiplate and counted on the Topcount in 150-200 μl Microscint 40. In some experiments, aliquots of supernatant were transferred to scintillation vials and counted on the Tricarb LSC in 5 ml Ultima Gold scintillant.

[1] abbreviates: compound 10 μM, human hepatic microsomes, cortisone 175 nM, typical sd ± 5%, N = 2.

T1 sequence (P28845 whole entry): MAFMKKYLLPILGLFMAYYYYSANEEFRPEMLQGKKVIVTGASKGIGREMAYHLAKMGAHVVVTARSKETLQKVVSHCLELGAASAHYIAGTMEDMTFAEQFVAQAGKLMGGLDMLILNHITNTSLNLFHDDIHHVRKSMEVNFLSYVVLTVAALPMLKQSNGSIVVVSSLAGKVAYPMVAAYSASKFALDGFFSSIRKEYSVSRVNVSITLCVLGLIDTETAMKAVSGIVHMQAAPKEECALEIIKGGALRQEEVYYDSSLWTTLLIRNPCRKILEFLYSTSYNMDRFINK

Usually melting point stands for the temperature of the solid-liquid transition. The compound `CC1Nc2cc(NC(=O)c3ccc(-c4ccccc4)cc3)ccc2N1C` (centres unmarked) showed a melting point of 272 to 274 °C. Same read-out and setting: to `CCCc1ccc(C(=O)Nc2ccc3c(c2)nc(C)n3C)cc1` belongs 214 to 218 °C; to `Cc1nc2cc(N(C)C(=O)c3ccc(Cl)cc3Cl)ccc2n1C`, 245 to 247 °C. The same measure, in the same setting: to `COc1ccc(C(=O)NCCc2cccs2)cc1` belongs 109 to 111 °C; to `CCCc1ccc(C(=O)NCCc2cccs2)cc1`, 97 to 99 °C; to `Cc1nc2c(Cl)c(NC(=O)Cc3ccc(Cl)cc3Cl)ccc2s1`, 257 to 258 °C. In turn, `O=C(Nc1ccc2c(c1)CCC2=O)c1cc(Cl)ccc1Cl` showed a melting point of 218 to 221 °C. Still for that read-out and setting: to `COc1ccc(C(=O)Nc2ccc3c(c2)CCC3=O)cc1` belongs 237 to 238 °C. Same read-out and setting: to `COc1cccc(C(=O)Nc2ccc(C(=O)c3ccccc3)cc2)c1` belongs 139 to 141 °C. With `CCCc1ccc(C(=O)Nc2ccc(C(C)=O)cc2)cc1`, the melting point fell in the range of 174 to 176 °C. Same read-out and setting: to `COc1ccc(C(=O)Nc2ccc(C(C)=O)cc2)cc1` belongs 222 to 223 °C. The same measure, in the same setting: to `COc1cccc(C(=O)Nc2ccc(C(C)=O)cc2)c1` belongs 152 to 154 °C; to `O=C(Nc1ccc2c(c1)CCCC2=O)c1cc(Cl)cc(Cl)c1`, 226 to 228 °C. For the compound `COc1ccc(C(=O)Nc2ccc3c(c2)CCCC3=O)cc1`, the melting point fell in the range of 163 to 166 °C.

With `CCCc1ccc(C(=O)Nc2ccc3sc(C)nc3c2)cc1`, the melting point fell in the range of 148 to 149 °C. Same read-out and setting: to `CCCc1ccc(S(=O)(=O)Nc2ccc(OC)nc2)cc1` belongs 93 to 94 °C; to `Cc1cnc2cc(NS(=O)(=O)c3cccc(Cl)c3C)ccc2n1`, 163 to 164 °C.

Regarding `CC1(C)[C@@H](OC(=O)CCC(=O)O)CC[C@]2(C)[C@H]3C(=O)C=C4[C@@H]5C[C@@](C)(C(=O)O)CC[C@]5(C)CC[C@@]4(C)[C@]3(C)CC[C@@H]12` [carbenoxolone, Carbenoxolone, reference compound], the “times more active than is suggested by Barf et al. [14]” value on Human 11β HSD1 (350 nM cortisone, 0.3% DMSO, RIA buffer (Buffer 3) (FIG. 23)) was “about 5 times”.

In general, inhibition refers to the percentage by which the read-out fell short of the control. In the case of `CCCc1ccc(C(=O)Nc2ccc3sc(C)nc3c2)cc1` [compound 471], the inhibition at 10 µM at Human 11β HSD1 is 53.7%. As for `CCCc1ccc(C(=O)N(C)c2ccc3sc(C)nc3c2)cc1` [compound 472], the inhibition at 10 µM on Human 11β HSD1 is 71.4%. `Cc1nc2cc(NC(=O)c3cc(Cl)cc(Cl)c3)ccc2s1` [compound 520]: the inhibition at 10 µM at Human 11β HSD1 came to 43.5%. The same measure, in the same setting: to `COc1ccc(S(=O)(=O)Nc2ccc(S(=O)(=O)Nc3cc(C)on3)cc2)cc1` [compound 555] belongs 53%; to `COc1cccc(NC(=O)Nc2ccc(S(=O)(=O)Nc3cc(C)on3)cc2)c1` [compound 556], 46.2%; to `CC(=O)Nc1ccc(S(=O)(=O)NNC(=O)CSc2ncnc3c(C)csc23)cc1` [compound 557], 51.3%.

As for `COc1ccc(S(=O)(=O)Nc2ccc(S(=O)(=O)Nc3nc(C)cc(C)n3)cc2)cc1OC` [compound 558], the inhibition at 10 µM on Human 11β HSD1 stood at 31.2%. As for `CCCc1ccc(S(=O)(=O)N(CC2CCNCC2)S(=O)(=O)c2ccc(CCC)cc2)cc1` [compound 576], at Human 11β HSD1 (setting [1]), the inhibition at 10 µM worked out at 47.7%.

In the case of `CCCc1ccc(S(=O)(=O)Nc2ccc(OC)nc2)cc1` [compound 577], on Human 11β HSD1, the inhibition at 10 µM amounted to 54.6%. On to `CC(=O)Nc1ccc(S(=O)(=O)Nc2cc(C)on2)cc1` [compound 606], for which the inhibition at 10 µM at Human 11β HSD1 (setting [1]) was found to be 22.1%. For the compound `Cc1cc(NS(=O)(=O)c2ccc(NS(=O)(=O)c3ccc(Cl)cc3Cl)cc2)no1` [compound 644], the inhibition at 10 µM at Human 11β HSD1 was found to be 37.1%. Same read-out and setting: to `CC(=O)Nc1ccc(S(=O)(=O)Nc2cc(C)on2)cc1Cl` [compound 645] belongs 42%; to `COc1ccc(S(=O)(=O)Nc2ccc(S(=O)(=O)NCCO)cc2)cc1` [compound 646], 48.5%.

Regarding `COc1ccc(S(=O)(=O)Nc2ccc(S(=O)(=O)NCCOS(=O)(=O)c3ccc(OC)cc3)cc2)cc1` [compound 647], the inhibition at 10 µM on Human 11β HSD1 was found to be 34.5%. Regarding `COc1ccc(S(=O)(=O)Nc2ccc(S(=O)(=O)NCCO)cc2)cc1OC` [compound 649], the inhibition at 10 µM on Human 11β HSD1 was 26.3%. Turning to `COc1cc(C)c(S(=O)(=O)Nc2ccc(S(=O)(=O)NCCOS(=O)(=O)c3c(C)cc(OC)c(C)c3C)cc2)c(C)c1C` [compound 652], the inhibition at 10 µM at Human 11β HSD1 was found to be 31.8%. Same read-out and setting: to `O=S(=O)(NCCO)c1ccc(NS(=O)(=O)c2ccc(Cl)cc2Cl)cc1` [compound 653] belongs 36.4%; to `Cc1cc(NS(=O)(=O)c2ccc(N)c(Cl)c2)no1` [compound 654], 32.1%. Still for that read-out and setting: to `CCCc1ccc(S(=O)(=O)NCc2ccccn2)cc1` [compound 702] belongs 37.6%; to `Cc1cc(NS(=O)(=O)c2cc(Cl)ccc2Cl)no1` [compound 823], 42.9%.

Regarding `Cc1cc(NS(=O)(=O)c2cccc(Cl)c2C)no1` [compound 825], the inhibition at 10 µM at Human 11β HSD1 is 23.2%.

In the case of `Cc1noc2ccc(NS(=O)(=O)c3cc(Cl)ccc3Cl)cc12` [compound 876], the inhibition at 10 µM on Human 11β HSD1 came to 23.6%. As for `CCCc1ccc(S(=O)(=O)Nc2ccc3oncc3c2)cc1` [compound 919], on Human 11β HSD1, the inhibition at 10 µM is 25.4%. Take `O=S(=O)(Nc1ccc2oncc2c1)c1cc(Cl)ccc1Cl` [compound 920]: the inhibition at 10 µM on Human 11β HSD1 was determined as 27.5%. The same measure, in the same setting: to `CC(=O)Nc1nsc2ccc(NS(=O)(=O)c3cccc(Cl)c3C)cc12` [compound 929] belongs 31%; to `Cc1ccc2cc(NS(=O)(=O)c3cccc(Cl)c3C)ccc2n1` [compound 935], 20.7%; to `CCCc1ccc(S(=O)(=O)Nc2ccc3nc(C)ccc3c2)cc1` [compound 936], 42.3%.

For `Cc1ccc2cc(NS(=O)(=O)c3cc(Cl)ccc3Cl)ccc2n1` [compound 937], on Human 11β HSD1, the inhibition at 10 µM came out at 36.6%. On to `Cc1cnc2cc(NS(=O)(=O)c3cccc(Cl)c3C)ccc2n1` [compound 955], for which, at Human 11β HSD1, the inhibition at 10 µM was found to be 60.8%. As for `CCCc1ccc(S(=O)(=O)Nc2ccc3nc(C)cnc3c2)cc1` [compound 956], the inhibition at 10 µM at Human 11β HSD1 is 64.8%. On the same count and under the same terms, to `Cc1c(Cl)cccc1S(=O)(=O)Nc1ccc2nccnc2c1` [compound 957] belongs 55.5%; to `CCCc1ccc(S(=O)(=O)Nc2ccc3nccnc3c2)cc1` [compound 958], 58.1%. On to `COC(=O)c1cc2cc(NS(=O)(=O)c3cccc(Cl)c3C)ccc2s1` [compound 971], for which the inhibition at 10 µM at Human 11β HSD1 worked out at 49.6%. Same read-out and setting: to `Cc1c(Cl)cccc1S(=O)(=O)Nc1ccc2occ(C)c2c1` [compound 972] belongs 59.2%; to `COC(=O)c1cc2cc(NS(=O)(=O)c3cccc(Cl)c3C)ccc2o1` [compound 973], 33.1%. Still for that read-out and setting: to `Cc1c(Cl)cccc1S(=O)(=O)Nc1ccc2c(c1)C(=O)N(C)C2=O` [compound 979] belongs 54.1%. Take `Cc1c(Cl)cccc1S(=O)(=O)Nc1ccc2c(C)cc(=O)oc2c1` [compound 980]: on Human 11β HSD1, the inhibition at 10 µM is 61.2%.

`Cc1c(Cl)cccc1S(=O)(=O)Nc1ccc2[nH]ncc2c1` [compound 983]: at Human 11β HSD1, the inhibition at 10 µM was found to be 41.9%. On the same count and under the same terms, to `Cc1c(Cl)cccc1S(=O)(=O)Nc1ccc2c(cnn2C)c1` [compound 988] belongs 56%; to `Cc1c(Cl)cccc1S(=O)(=O)Nc1ccc2c(c1)OCCO2` [compound 990], 73.3%. As to `Cc1c(Cl)cccc1S(=O)(=O)Nc1ccc2scc(C)c2c1` [compound 1015], the inhibition at 10 µM on Human 11β HSD1 came out at 64.6%. Same read-out and setting: to `Cc1nc2cc(CSc3cc(Cl)ccc3Cl)ccc2s1` [compound 1031] belongs 45.6%.

As for `Cc1c(Cl)cccc1S(=O)(=O)Nc1ccc2c(c1)-c1ccccc1C2=O` [compound 1033], the inhibition at 10 µM on Human 11β HSD1 is 62.6%. The same measure, in the same setting: to `Cc1cc2cc(NS(=O)(=O)c3cccc(Cl)c3C)ccc2o1` [compound 1038] belongs 28.7%.
